Key:
Assay type in all cases: in vivo, mouse
SLE-prone mice hearts = assay: Echocardiography; conditions: vs vehicle-treated SLE mice
Description: Transthoracic echocardiography was conducted on non-anesthetized animals as described previously in Marin et al., J Clin Invest. 2011; 121:1026-1043, with a 13-MHz probe (Vivid 7, GE Medical Systems, Boston, Mass.) or VisualSonics Vevo 770 high-frequency ultrasound rodent imaging system (VisualSonics, Toronto, Ontario). GE Medical Systems or VisualSonics Vevo 770 software was used for data acquisition and subsequent analysis. Hearts were imaged in the 2-dimensional parasternal short-axis view, and an M-mode echocardiogram of the midventricular region was recorded at the level of the papillary muscles. Calculations of cardiac anatomic and functional parameters were carried out as described in Marin et al., J Clin Invest. 2011; 121:1026-1043.

[1] = test system: serum IgG and anti dsDNA IgG; assay: Serum IgG and anti-dsDNA IgG ELISA; conditions: SLE mice serum
Source text: ELISA assays were used to detect for the presence of various cytokines in mouse serum isolated from vehicle or drug-treated animals or from medium supernatant isolated from tissue cell cultures as described above. In addition, ELISA was also used to detect total IgG and dsDNA IgG from mouse serum and for the assay to detect urine albumin and creatinine levels. ELISA detection kits for mouse cytokines IL-6 and TNFα were purchased from eBioscience, mouse cytokines IL-17A, IFNγ, and human IFNγ were purchased from Biolegend, kits for the albumin and creatinine were purchased from Exocell, and kits for the serum IgG and anti-dsDNA IgG were purchased from Alpha Diagnostic (San Antonio, Tex.). ELISAs were all performed according to the manufacturer's instructions.
Serum IgG and anti-dsDNA IgG: 100 μl of 1:50000× diluted serum for IgG and 100 μl of 1:20000× diluted serum for dsDNA IgG were used and loaded onto a precoated 96-well plate in duplicate for 1 hour at room temperature. […] The OD of the wells was determined using a microplate reader set at a wavelength of 450 nm.
In this Example, the effect of the SHP2 inhibitor, L97M74, on the onset of SLE disease progression was evaluated by measuring the levels of auto antibodies in SLE inhibitor-treated versus vehicle-treated mice through detection anti-histone antibodies and anti-IgG by ELISA.

SLE-prone MRL/lpr mice = assay: SLE disease progression in MRL/lpr mice (skin, spleen, kidney, thymus, proteinuria, histology, body weight)
Description: Briefly, female MRL/MpJ-fas lpr (MRL/lpr), MRL/Mpj and C57BL/6J mice were purchased from the Jackson Laboratory (Bar Harbor, Me.). For experiments, mice within each group were ip injected with either vehicle (DMSO) or the SHP2 inhibitor (7.5 mg/kg/per day). Testing continued for a period of 6 weeks, starting at 11 weeks of age to 17 weeks. Body weight was measured daily and treatment dosage was adjusted accordingly. At the end of the treatment period, mice were sacrificed with CO2 exsanguination and SLE targeted organs were removed. For each mouse, spleen, kidney, and heart weight were calculated. In addition, total animal body weight and tibia length were measured. Peripheral blood/serum was also collected for use in the cytokine assays described below.
Harvested organs (kidney, spleen, and heart) to be used to assess morphometry and histochemistry were flushed with PBS, perfusion fixed in Bouin's reagent, and paraffin embedded. Sections (5 μm) were stained with Hematoxylin and Eosin (H&E), Periodic acid—Schiff stain (PAS), Masson-Trichrome, or reticulin staining at the Harvard Medical School Rodent Histopathology Core and scored using an unbiased approach, in which histology scores of 1 (normal) to 5 (most severe pathology) were designated to tissue sections which were only numerically labeled and in no particular order (by Dr. Roderick Bronson, director of the Rodent Histopathology Core, Harvard Medical School). Numerical sections were later decoded, marked for their designated score, and statistically analyzed. Images of the tissue sections were obtained and quantified on a Keyence BZ-9000 Microscope (Keyence Corporation, Itasca, Ill.).
To determine kidney function, urine was collected before mice were sacrificed. Albumin and creatinine in the urine were measured using colorimetric assays according to the manufacturer's instructions (Albuwell M; The creatinine companion, Exocell), as described below. The kidney function was calculated as ratio of albumin to creatinine levels.
Albumin and creatinine levels: For the albumin assay, collected mouse urine was diluted at 1:5200× and 50 μl was loaded onto an albumin precoated 96-well plate, followed by primary incubation, secondary incubation and colorimetric determination. For the creatinine assay, the urine was diluted 20× and loaded onto a 96-well plate, and picrate working solution and acid reagent were added sequentially according to protocol. Absorbance was assayed using a plate reader set at a wavelength of 495 nm.
To determine whether inhibition of SHP2 activity affected SLE disease progression, each of the SLE target tissues (i.e., skin, kidney, spleen) was tested in both treated and untreated SLE-prone mice. Particularly, tissues were tested as: WT treated with inhibitor, WT treated with DMSO (vehicle), MRL/mpJ treated with inhibitor, MRL/mpf treated with DMSO (vehicle), MRL/lpr treated with inhibitor, and MRL/lpr treated with DMSO (vehicle).

[2] = MRL/lpr mice, treatment for 6 weeks

With `Cn1c(-c2cccc(NC(=O)C(=O)Nc3ccc(-c4ccsc4)cc3)c2)c(I)c2cc(C(=O)O)c(O)cc21` [11a-1] the cardiac functional parameters (SLE-prone mice hearts) was “significantly improved functional parameters”, the “left ventricular chamber dimension” value (SLE-prone mice hearts) was “decreased chamber” and the posterior wall thickness (SLE-prone mice hearts) was “increased posterior wall measurements”. The “levels of IgG” value [1] was “not reduced”, the “levels of double-stranded DNA (anti dsDNA IgG)” value [1] was “not reduced” and the “cytotoxic effects during the treatment period” value (SLE-prone MRL/lpr mice; 7.5 mg/kg/day) was “no obvious cytotoxic effects”. The “SLE-related disease phenotype in the kidney (histology: glomerulonephritis, fibrosis, immune cell infiltration)” value (SLE-prone MRL/lpr mice; MRL/lpr mice) was “prevented the development of this SLE-related disease phenotype in the kidney”, the “unbiased histopathological scoring of kidney” value (SLE-prone MRL/lpr mice; MRL/lpr mice) was “quantifiably prevented the development of SLE-related disease phenotype” and the kidney size (SLE-prone MRL/lpr mice; [2]) was “normalized the kidney to a size”. For the same molecule, the “splenomegaly (spleen size and weight)” value (SLE-prone MRL/lpr mice; [2]) was “reduced splenomegaly”, the “PAS staining of kidney tissue” value (SLE-prone MRL/lpr mice; SLE kidneys) was “decreased inflammatory infiltration in the tissue, smaller glomeruli, decreased fibrosis, and decreased numbers of mesangial cells surrounding the glomerulus” and the proteinuria (SLE-prone MRL/lpr mice; SLE mice vs vehicle-treated) was “significant reduction in proteinuria”. The thymus size (SLE-prone MRL/lpr mice; SLE-prone mice) was “decreased thymus size”, the skin lesions/inflammation (SLE-prone MRL/lpr mice; SLE-prone mice, 7.5 mg/kg/day) was “reduced the skin lesions/inflammation” and the “body weight during treatment period” value (SLE-prone MRL/lpr mice; mice, 7.5 mg/kg/day ip) was “no change in body weight”.
